Reference: PubChem BioAssay (NCI)
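96-well plates; 48 h exposure; 5 concentrations. Endpoints by linear interpolation between flanking doses. Not reached: highest tested concentration assigned. The concentration for 50% growth inhibition is given as GI50. TGI marks complete inhibition of growth.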

Tests used:
Experiment in all cases: NCI anticancer screen, dose series, 48 h
786-0 renal = test system: 786-0 renal
A549 NSCLC = test system: A549 NSCLC
ACHN renal = test system: ACHN renal
CAKI-1 renal = test system: CAKI-1 renal
COLO 205 colon = test system: COLO 205 colon
DLD-1 colon = test system: DLD-1 colon
DMS 114 small cell lung = test system: DMS 114 small cell lung
DMS 273 small cell lung = test system: DMS 273 small cell lung
EKVX NSCLC = test system: EKVX NSCLC
HCC-2998 colon = test system: HCC-2998 colon
HCT-116 colon = test system: HCT-116 colon
HL-60(TB) leukemia = test system: HL-60(TB) leukemia
HOP-62 NSCLC = test system: HOP-62 NSCLC
HOP-92 NSCLC = test system: HOP-92 NSCLC
HT29 colon = test system: HT29 colon
KM12 colon = test system: KM12 colon
KM20L2 colon = test system: KM20L2 colon
LOX IMVI melanoma = test system: LOX IMVI melanoma
LXFL 529 NSCLC = test system: LXFL 529 NSCLC
M14 melanoma = test system: M14 melanoma
M19-MEL melanoma = test system: M19-MEL melanoma
MALME-3M melanoma = test system: MALME-3M melanoma
NCI-H226 lung = test system: NCI-H226 lung
NCI-H23 lung = test system: NCI-H23 lung
NCI-H460 lung = test system: NCI-H460 lung
NCI-H522 lung = test system: NCI-H522 lung
OVCAR-3 ovarian = test system: OVCAR-3 ovarian
OVCAR-4 ovarian = test system: OVCAR-4 ovarian
OVCAR-5 ovarian = test system: OVCAR-5 ovarian
OVCAR-8 ovarian = test system: OVCAR-8 ovarian
RXF 393 renal = test system: RXF 393 renal
SF-268 CNS = test system: SF-268 CNS
SF-295 CNS = test system: SF-295 CNS
SF-539 CNS = test system: SF-539 CNS
SK-MEL-2 melanoma = test system: SK-MEL-2 melanoma
SK-MEL-28 melanoma = test system: SK-MEL-28 melanoma
SN12C renal = test system: SN12C renal
SNB-19 CNS = test system: SNB-19 CNS
SNB-75 CNS = test system: SNB-75 CNS
SNB-78 CNS = test system: SNB-78 CNS
SW-620 colon = test system: SW-620 colon
TK-10 renal = test system: TK-10 renal
U251 CNS = test system: U251 CNS
UACC-257 melanoma = test system: UACC-257 melanoma
UO-31 renal = test system: UO-31 renal
A498 renal = test system: A498 renal
CCRF-CEM leukemia = test system: CCRF-CEM leukemia
HCT-15 colon = test system: HCT-15 colon
HOP-18 NSCLC = test system: HOP-18 NSCLC
IGROV1 ovarian = test system: IGROV1 ovarian
K-562 leukemia = test system: K-562 leukemia
MOLT-4 leukemia = test system: MOLT-4 leukemia
RPMI-8226 leukemia = test system: RPMI-8226 leukemia
SK-MEL-5 melanoma = test system: SK-MEL-5 melanoma
SK-OV-3 ovarian = test system: SK-OV-3 ovarian
UACC-62 melanoma = test system: UACC-62 melanoma

**Q.** Which results are given for `CC1=C(CC/C(C)=C/CCC2(C)CCC([C@H](C)C(=O)O)OO2)C(C)(C)CCC1` (stereo partly specified) (tested in a mixture with another compound)?
**A.** TGI (786-0 renal): > 100 µM; TGI (A549 NSCLC): > 100 µM; TGI (ACHN renal): > 100 µM; TGI (CAKI-1 renal): > 100 µM; TGI (COLO 205 colon): > 100 µM; TGI (DLD-1 colon): > 100 µM; TGI (DMS 114 small cell lung): > 100 µM; TGI (DMS 273 small cell lung): > 100 µM; TGI (EKVX NSCLC): > 100 µM; TGI (HCC-2998 colon): > 100 µM; TGI (HCT-116 colon): > 100 µM; TGI (HL-60(TB) leukemia): > 100 µM; TGI (HOP-62 NSCLC): > 100 µM; TGI (HOP-92 NSCLC): > 100 µM; TGI (HT29 colon): > 100 µM; TGI (KM12 colon): > 100 µM; TGI (KM20L2 colon): > 100 µM; TGI (LOX IMVI melanoma): > 100 µM; TGI (LXFL 529 NSCLC): > 100 µM; TGI (M14 melanoma): > 100 µM; TGI (M19-MEL melanoma): > 100 µM; TGI (MALME-3M melanoma): > 100 µM; TGI (NCI-H226 lung): > 100 µM; TGI (NCI-H23 lung): > 100 µM; TGI (NCI-H460 lung): > 100 µM; TGI (NCI-H522 lung): > 100 µM; TGI (OVCAR-3 ovarian): > 100 µM; TGI (OVCAR-4 ovarian): > 100 µM; TGI (OVCAR-5 ovarian): > 100 µM; TGI (OVCAR-8 ovarian): > 100 µM; TGI (RXF 393 renal): > 100 µM; TGI (SF-268 CNS): > 100 µM; TGI (SF-295 CNS): > 100 µM; TGI (SF-539 CNS): > 100 µM; TGI (SK-MEL-2 melanoma): > 100 µM; TGI (SK-MEL-28 melanoma): > 100 µM; TGI (SN12C renal): > 100 µM; TGI (SNB-19 CNS): > 100 µM; TGI (SNB-75 CNS): > 100 µM; TGI (SNB-78 CNS): > 100 µM; TGI (SW-620 colon): > 100 µM; TGI (TK-10 renal): > 100 µM; TGI (U251 CNS): > 100 µM; TGI (UACC-257 melanoma): > 100 µM; TGI (UO-31 renal): > 100 µM

**Q.** Which results are given for `CC(=O)[CH-]C(=O)c1ccccc1.CC(=O)[CH-]C(=O)c1ccccc1.CC(C)CCCC(C)[C@H]1CCC2[C@@H]3CCC4C[C@@H]([O-])CC[C@]4(C)C3CC[C@@]21C.CC(C)CCCC(C)[C@H]1CCC2[C@@H]3CCC4C[C@@H]([O-])CC[C@]4(C)C3CC[C@@]21C.Cl.[Ti+4]` (stereo partly specified)?
**A.** GI50 (786-0 renal): > 25 µM; TGI (786-0 renal): > 25 µM; GI50 (A498 renal): > 25 µM; TGI (A498 renal): > 25 µM; GI50 (A549 NSCLC): > 25 µM; TGI (A549 NSCLC): > 25 µM; GI50 (ACHN renal): > 25 µM; TGI (ACHN renal): > 25 µM; GI50 (CAKI-1 renal): > 25 µM; TGI (CAKI-1 renal): > 25 µM; GI50 (CCRF-CEM leukemia): > 25 µM; TGI (CCRF-CEM leukemia): > 25 µM; GI50 (COLO 205 colon): > 25 µM; TGI (COLO 205 colon): > 25 µM; GI50 (DLD-1 colon): > 25 µM; TGI (DLD-1 colon): > 25 µM; GI50 (DMS 273 small cell lung): > 25 µM; TGI (DMS 273 small cell lung): > 25 µM; GI50 (EKVX NSCLC): > 25 µM; TGI (EKVX NSCLC): > 25 µM; GI50 (HCC-2998 colon): > 25 µM; TGI (HCC-2998 colon): > 25 µM; GI50 (HCT-116 colon): > 25 µM; TGI (HCT-116 colon): > 25 µM; GI50 (HCT-15 colon): > 25 µM; TGI (HCT-15 colon): > 25 µM; GI50 (HL-60(TB) leukemia): 8.29 µM; TGI (HL-60(TB) leukemia): 24.9 µM; GI50 (HOP-18 NSCLC): > 25 µM; TGI (HOP-18 NSCLC): > 25 µM; GI50 (HOP-62 NSCLC): > 25 µM; TGI (HOP-62 NSCLC): > 25 µM; GI50 (HT29 colon): > 25 µM; TGI (HT29 colon): > 25 µM; GI50 (IGROV1 ovarian): > 25 µM; TGI (IGROV1 ovarian): > 25 µM; GI50 (K-562 leukemia): > 25 µM; TGI (K-562 leukemia): > 25 µM; GI50 (KM12 colon): > 25 µM; TGI (KM12 colon): > 25 µM; GI50 (KM20L2 colon): > 25 µM; TGI (KM20L2 colon): > 25 µM; GI50 (LOX IMVI melanoma): > 25 µM; TGI (LOX IMVI melanoma): > 25 µM; GI50 (LXFL 529 NSCLC): > 25 µM; TGI (LXFL 529 NSCLC): > 25 µM; GI50 (M14 melanoma): > 25 µM; TGI (M14 melanoma): > 25 µM; GI50 (M19-MEL melanoma): > 25 µM; TGI (M19-MEL melanoma): > 25 µM; GI50 (MALME-3M melanoma): 8.93 µM; TGI (MALME-3M melanoma): > 25 µM; GI50 (MOLT-4 leukemia): > 25 µM; TGI (MOLT-4 leukemia): > 25 µM; GI50 (NCI-H226 lung): > 25 µM; TGI (NCI-H226 lung): > 25 µM; GI50 (NCI-H23 lung): > 25 µM; TGI (NCI-H23 lung): > 25 µM; GI50 (NCI-H460 lung): > 25 µM; TGI (NCI-H460 lung): > 25 µM; GI50 (NCI-H522 lung): > 25 µM; TGI (NCI-H522 lung): > 25 µM; GI50 (OVCAR-3 ovarian): > 25 µM; TGI (OVCAR-3 ovarian): > 25 µM; GI50 (OVCAR-4 ovarian): > 25 µM; TGI (OVCAR-4 ovarian): > 25 µM; GI50 (OVCAR-5 ovarian): > 25 µM; TGI (OVCAR-5 ovarian): > 25 µM; GI50 (OVCAR-8 ovarian): > 25 µM; TGI (OVCAR-8 ovarian): > 25 µM; GI50 (RPMI-8226 leukemia): > 25 µM; TGI (RPMI-8226 leukemia): > 25 µM; GI50 (RXF 393 renal): > 25 µM; TGI (RXF 393 renal): > 25 µM; GI50 (SF-268 CNS): > 25 µM; TGI (SF-268 CNS): > 25 µM; GI50 (SF-295 CNS): > 25 µM; TGI (SF-295 CNS): > 25 µM; GI50 (SF-539 CNS): > 25 µM; TGI (SF-539 CNS): > 25 µM; GI50 (SK-MEL-2 melanoma): > 25 µM; TGI (SK-MEL-2 melanoma): > 25 µM; GI50 (SK-MEL-28 melanoma): > 25 µM; TGI (SK-MEL-28 melanoma): > 25 µM; GI50 (SK-MEL-5 melanoma): > 25 µM; TGI (SK-MEL-5 melanoma): > 25 µM; GI50 (SK-OV-3 ovarian): > 25 µM; TGI (SK-OV-3 ovarian): > 25 µM; GI50 (SN12C renal): > 25 µM; TGI (SN12C renal): > 25 µM; GI50 (SNB-19 CNS): > 25 µM; TGI (SNB-19 CNS): > 25 µM; GI50 (SNB-75 CNS): > 25 µM; TGI (SNB-75 CNS): > 25 µM; GI50 (SW-620 colon): > 25 µM; TGI (SW-620 colon): > 25 µM; GI50 (TK-10 renal): > 25 µM; TGI (TK-10 renal): > 25 µM; GI50 (U251 CNS): > 25 µM; TGI (U251 CNS): > 25 µM; GI50 (UACC-257 melanoma): > 25 µM; TGI (UACC-257 melanoma): > 25 µM; GI50 (UACC-62 melanoma): > 25 µM; TGI (UACC-62 melanoma): > 25 µM; GI50 (UO-31 renal): > 25 µM; TGI (UO-31 renal): > 25 µM
